From ChEMBL document CHEMBL4265882, “Tetrahydroquinoline and tetrahydroisoquinoline derivatives as potential selective PDE4B inhibitors” (Bioorg Med Chem Lett, 2018)

How the values were obtained:
[1] = target: 3',5'-cyclic-AMP phosphodiesterase 4B (Homo sapiens, UniProt Q07343); assay: Inhibition of human U937 cells-derived PDE4B using [3H]-cAMP as substrate after 30 mins
[2] = Inhibition of PDE4 in human PBMC assessed as reduction in LPS-stimulated TNFalpha release preincubated for 30 mins followed by LPS stimulation for 18 hrs by TR-FRET assay; assay type: cell-based
[3] = target: 3',5'-cyclic-AMP phosphodiesterase 4D (Homo sapiens, UniProt Q08499); assay: Inhibition of human U937 cells-derived PDE4D using [3H]-cAMP as substrate after 30 mins
3',5'-cyclic-AMP phosphodiesterase 4D, sequence (Q08499 whole entry): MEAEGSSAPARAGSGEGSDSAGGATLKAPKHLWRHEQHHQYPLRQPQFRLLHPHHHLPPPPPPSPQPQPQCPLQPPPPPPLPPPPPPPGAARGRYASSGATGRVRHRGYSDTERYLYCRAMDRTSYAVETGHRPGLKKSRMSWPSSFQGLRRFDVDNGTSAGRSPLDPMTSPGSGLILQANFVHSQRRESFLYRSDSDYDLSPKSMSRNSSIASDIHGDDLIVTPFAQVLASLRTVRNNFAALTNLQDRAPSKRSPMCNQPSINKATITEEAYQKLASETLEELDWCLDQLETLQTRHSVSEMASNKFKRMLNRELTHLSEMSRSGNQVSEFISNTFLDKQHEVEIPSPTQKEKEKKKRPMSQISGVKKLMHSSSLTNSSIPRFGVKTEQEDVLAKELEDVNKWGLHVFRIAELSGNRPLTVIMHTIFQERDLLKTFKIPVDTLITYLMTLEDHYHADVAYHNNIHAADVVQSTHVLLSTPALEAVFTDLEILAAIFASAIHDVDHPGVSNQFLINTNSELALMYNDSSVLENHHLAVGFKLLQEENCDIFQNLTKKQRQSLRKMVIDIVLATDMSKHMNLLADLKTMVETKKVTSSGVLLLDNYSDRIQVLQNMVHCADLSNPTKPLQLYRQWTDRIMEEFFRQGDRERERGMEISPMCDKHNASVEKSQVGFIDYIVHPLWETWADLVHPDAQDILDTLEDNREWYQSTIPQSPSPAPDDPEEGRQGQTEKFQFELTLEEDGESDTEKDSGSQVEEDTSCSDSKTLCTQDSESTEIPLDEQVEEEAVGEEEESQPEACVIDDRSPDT

[4] = tested on: Rattus norvegicus; assay: Anti-inflammatory activity in Sprague-Dawley rat model of LPS-induced asthma/COPD assessed as inhibition of neutrophilia in BALF at 10 mg/kg, po administered 30 mins prior to LPS challenge for 40 mins and measured after 6 hrs relative to control; assay type: functional
[5] = tested on: Mus musculus; assay: Anti-inflammatory activity in Swiss albino mouse model of sepsis assessed as inhibition of LPS-induced TNFalpha release at 10 mg/kg, po administered 30 mins prior to LPS challenge for 90 mins by ELISA relative to control; assay type: functional
[6] = species: Homo sapiens; assay: Selectivity index, ratio of IC50 for human U937 cells-derived PDE4D to IC50 for human U937 cells-derived PDE4B

3',5'-cyclic-AMP phosphodiesterase 4B, sequence (Q07343 whole entry): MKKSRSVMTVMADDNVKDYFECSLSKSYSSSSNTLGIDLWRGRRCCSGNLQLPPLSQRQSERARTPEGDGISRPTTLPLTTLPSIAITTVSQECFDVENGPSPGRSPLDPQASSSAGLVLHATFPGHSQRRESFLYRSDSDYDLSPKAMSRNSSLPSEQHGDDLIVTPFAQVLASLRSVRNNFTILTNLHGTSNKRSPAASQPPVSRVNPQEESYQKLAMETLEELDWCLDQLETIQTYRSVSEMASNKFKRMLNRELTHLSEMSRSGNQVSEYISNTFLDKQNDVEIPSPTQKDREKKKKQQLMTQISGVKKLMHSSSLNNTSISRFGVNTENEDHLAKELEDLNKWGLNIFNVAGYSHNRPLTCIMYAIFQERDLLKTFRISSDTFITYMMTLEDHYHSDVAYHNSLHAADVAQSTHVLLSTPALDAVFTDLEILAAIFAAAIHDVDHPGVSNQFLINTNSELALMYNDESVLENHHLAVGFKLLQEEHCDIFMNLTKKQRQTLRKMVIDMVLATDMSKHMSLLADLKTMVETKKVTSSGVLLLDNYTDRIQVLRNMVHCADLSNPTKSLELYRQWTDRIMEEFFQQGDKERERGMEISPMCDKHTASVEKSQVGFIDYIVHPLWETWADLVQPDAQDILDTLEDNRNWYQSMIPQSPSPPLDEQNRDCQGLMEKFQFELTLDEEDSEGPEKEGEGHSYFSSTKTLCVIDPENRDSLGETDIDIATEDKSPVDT

Compound | IC50 [1] | IC50 [2] | IC50 [3] | Ratio IC50 [6] | inhibition in vivo at 10 mg/kg [4] | inhibition in vivo at 10 mg/kg [5]
O=C(c1ccc(-c2cccc(F)c2)o1)N1CCCc2ccccc21 | 22.2 µM | 64.3 µM |  |  |  | 
O=C(c1ccc(-c2ccc(F)cc2F)o1)N1CCc2ccccc2C1 | 3 µM | 17.1 µM | 18.1 µM | 6.03 | 29.5% | 30.8%
O=C(c1ccc(-c2c(F)cccc2F)o1)N1CCCc2ccccc21 | 15.2 µM | 89.3 µM | 81.3 µM | 5.34 |  | 
O=C(c1ccc(-c2ccccc2Cl)o1)N1CCc2ccccc2C1 | 51.6 µM | 121 µM |  |  |  | 
O=C(c1ccc(-c2ccccc2[N+](=O)[O-])o1)N1CCCc2ccccc21 | 66.9 µM | 128 µM |  |  |  | 
O=C(c1ccc(-c2ccccc2)o1)N1CCc2ccccc2C1 | 79.6 µM | 188 µM |  |  |  | 
Cc1ccc(-c2ccc(C(=O)N3CCCc4ccccc43)o2)cc1 | 9.4 µM | 35.2 µM | 50.1 µM | 5.33 |  | 
O=C(c1ccc(-c2cccc([N+](=O)[O-])c2)o1)N1CCCc2ccccc21 | 30.9 µM | 62.3 µM |  |  |  | 
O=C(c1ccc(-c2c(F)cccc2F)o1)N1CCc2ccccc2C1 | 17.1 µM | 91.9 µM | 89.2 µM | 4.21 |  | 
COc1ccc(C2CNC(=O)C2)cc1OC1CCCC1 (stereo unspecified) [ROLIPRAM] |  | 18.9 µM |  |  | 34.2% | 42.9%
O=C(c1ccc(-c2ccccc2)o1)N1CCCc2ccccc21 | 70.9 µM | 142 µM |  |  |  | 
O=C(c1ccc(-c2ccc(Br)cc2)o1)N1CCCc2ccccc21 | 46.8 µM | 131 µM |  |  |  | 
O=C(c1ccc(-c2ccc(Cl)cc2)o1)N1CCCc2ccccc21 | 3.5 µM | 27.2 µM | 21.3 µM | 6.09 |  | 
O=C(c1ccc(-c2ccccc2Cl)o1)N1CCCc2ccccc21 | 41.6 µM | 101 µM |  |  |  | 
O=C(c1ccc(-c2ccc(F)cc2F)o1)N1CCCc2ccccc21 | 2.6 µM | 16.2 µM | 15.6 µM | 6 | 34.1% | 39.6%
COc1ccc(-c2ccc(C(=O)N3CCCc4ccccc43)o2)cc1 | 1.5 µM | 11.8 µM | 10.3 µM | 6.86 | 40.1% | 46.8%
O=C(c1ccc(-c2ccccc2F)o1)N1CCc2ccccc2C1 | 46.1 µM | 95.4 µM |  |  |  | 
O=C(c1ccc(-c2ccccc2F)o1)N1CCCc2ccccc21 | 50.3 µM | 92.8 µM |  |  |  | 
O=C(c1ccc(-c2ccc(F)cc2)o1)N1CCCc2ccccc21 | 6.1 µM | 22.1 µM | 40.3 µM | 6.6 |  | 
O=C(c1ccc(-c2cccc(Cl)c2)o1)N1CCCc2ccccc21 | 18.9 µM | 62.5 µM | 96.8 µM | 5.12 |  | 

Continued, in another order:

IC50 [1] | IC50 [2] | IC50 [3] | Ratio IC50 [6] | Compound | inhibition in vivo at 10 mg/kg [4] | inhibition in vivo at 10 mg/kg [5]
21.1 µM | 57.1 µM |  |  | O=C(c1ccc(-c2cccc(Cl)c2)o1)N1CCc2ccccc2C1 |  | 
12.1 µM | 46.8 µM | 77.2 µM | 6.38 | O=C(c1ccc(-c2ccc([N+](=O)[O-])cc2)o1)N1CCCc2ccccc21 |  | 
66.3 µM | 151 µM |  |  | O=C(c1ccc(-c2ccccc2[N+](=O)[O-])o1)N1CCc2ccccc2C1 |  | 
15.8 µM | 46.3 µM | 88.3 µM | 5.39 | O=C(c1ccc(-c2ccc([N+](=O)[O-])cc2)o1)N1CCc2ccccc2C1 |  | 
58.4 µM | 156 µM |  |  | O=C(c1ccc(-c2ccc(Br)cc2)o1)N1CCc2ccccc2C1 |  | 
4.1 µM | 28.6 µM | 25.2 µM | 6.14 | O=C(c1ccc(-c2ccc(Cl)cc2)o1)N1CCc2ccccc2C1 |  | 
2.6 µM | 13.6 µM | 10.2 µM | 3.92 | COc1ccc(-c2ccc(C(=O)N3CCc4ccccc4C3)o2)cc1 | 32.7% | 39.2%
25.7 µM | 78.1 µM |  |  | O=C(c1ccc(-c2cccc(F)c2)o1)N1CCc2ccccc2C1 |  | 
7.4 µM | 27.2 µM | 49.3 µM | 6.66 | O=C(c1ccc(-c2ccc(F)cc2)o1)N1CCc2ccccc2C1 |  | 
39.9 µM | 72.5 µM |  |  | O=C(c1ccc(-c2cccc([N+](=O)[O-])c2)o1)N1CCc2ccccc2C1 |  | 
9.4 µM | 44.1 µM | 56.8 µM | 6.04 | Cc1ccc(-c2ccc(C(=O)N3CCc4ccccc4C3)o2)cc1 |  | 
